The structures appear in SMILES notation.

A short description of the series: Dissociation constant, pKa of the compound. In kind it is physicochemical.
`CC(=N)Nc1nsc2ccccc12` came in with a pKa of 6.99.

Take `N=C(Nc1nsc2ccccc12)c1ccccc1`: the pKa is 5.4.

For the molecule `N=C(Nc1nsc2ccccc12)c1ccc(Cl)cc1`, the pKa worked out at 4.84.
